The values below are quoted from earlier work in US20250120988A1, “SMALL MOLECULE COMPOUND FOR TREATING ISCHEMIC STROKE, ITS PREPARATION METHOD, AND APPLICATION” (SHANGHAI SIXTH PEOPLE'S HOSPITAL, priority 2023, published 2025).

In general, IC50 refers to the concentration needed to halve the response being measured.

In one data set the test system is NMDARs. Particulars: competitive antagonist of NMDARs; read-out: half-blocking dose (IC50) on NMDARs; cited from earlier work.
For data set [1] the following is noted: cited from earlier work.
The test system of a further data set is ischemic stroke patients. The following applies: clinical trials; cited from earlier work.

The structures appear in SMILES notation.

With `O=C(O)[C@@H]1C[C@H](CP(=O)(O)O)CCN1` (racemic) [Selfotel], in the data set with NMDARs, the IC50 is less than 1000 nM. Also, the solubility in water result in data set [1] is “highly soluble in water”. Further, in the data set on ischemic stroke patients, the “patient mortality compared to the control group” value is recorded as “did not significantly reduce patient mortality” and the “psychiatric symptoms in patients” value was “led to various psychiatric symptoms in patients”.
